Results from US20230357099A1, “PYRAZOLO [3,4-B] PYRIDINE-4-CARBOXAMIDE NITRIFICATION INHIBITOR” (EUROCHEM ANTWERPTEN, priority 2020, published 2023).

Experiments:
[1] = test system: agricultural soils; experiment: In soil nitrification inhibition assay; conditions: Soil 2; for inhibition at 50 µM / inhibition at 100 µM: soil; for inhibition at 50 µM: 50 µM of each compound; for inhibition at 100 µM: 168 h
Experimental: Top layer (0 to 10 cm) soil samples were collected from different fields in Belgium (Merelbeke, Sint-Laureins and Moorslede). Vegetation was removed and samples were taken from different plots. All soil samples were mixed and sieved (mesh size 2.8 mm) to filter large debris and homogenize soil. The soil was stored at 5° C. in plastic containers covered with Saran foil to prevent changes in microbial community composition and to maintain the original soil water content.
Soil water content was determined by drying 20 g soil for ≥ 48 h in a 60° C. oven and measuring weight before and after drying. Based on the soil water content (± 20%), compound solutions were prepared so that addition of 200 µl compound and 200 µl NH4Cl solution would result in a final compound concentration of 50 µM (unless otherwise stated) and a final NH4+ concentration of 10 mM. Per treatment, 5 small pots were filled with 20 g soil. Next, the soil was treated first with the respective compound solution and then with the NH4Cl solution. Per tray, positive (50 µM DMP) and negative controls (DMSO) were included. […] Demineralized water was added to the soil every 2 to 3 days to a soil weight of 20 g. In the end, each sample of 20 g soil was dissolved in 100 ml 1 M KCI and shaken for 1 hour, followed by filtration through Whatmann® paper. The filtrate was used to measure pH, NH4+ and NO3— concentrations. The nitrification percentage was calculated as the ratio of the consumed ammonium in treated soil versus the consumed ammonium in non-treated soil; the nitrification inhibition percentage was calculated as ‘100% - the nitrification percentage’.

[2] = test system: Aliivibrio fischeri; type: cell-based
Experimental: Furthermore, a representative subset was tested on Aliivibrio fischeri growth (formerly known as Vibrio fischeri), a bacterium used in the Microtox assay to test toxic substances in different substrates such as (drinking) water, air, soils and sediments.
Two of these variants were also tested on Aliivibrio fischeri to test possible toxicity.

[3] = test system: Nitrososphaera viennensis; experiment: Nitrification inhibition assay on Nitrososphaera viennensis (nitrite, Griess); type: cell-based, Nitrososphaera viennensis EN76T; conditions: Nitrososphaera viennensis; 2.5 µM compound; structural variants outside formula (I); read-out: Relative nitrification (%) by Nitrososphaera viennensis treated with 2.5 µM compound
Outline: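 N. viennensis EN76T cultures in FWM (pH 7.5, NH4Cl-supplemented), 5× concentrated, treated with compounds at 2.5 µM final (0.25% DMSO) and incubated 24 h at 42 °C. Nitrite measured by Griess absorbance at 540 nm against a standard curve. Relative nitrification normalized between DMSO (no compound) and 100 µM PTIO controls.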

[4] = test system: ABIL (ammonia-binding liquid inoculum), nitrifying microbial enrichment containing both AOA and AOB; experiment: Nitrification inhibition assay on ABIL (ammonium consumption); type: cell-based; conditions: 10 µM compound; structural variants outside formula (I); read-out: Relative nitrification (%) by ABIL treated with 10 µM compound
[5] = 7 days, 100 µM of each compound, 6 inhibitors alone and combined with Example 2

SMILES	activity at 2.5 µM [3]	activity at 10 µM [4]	other results
S=C1NCCS1 [1,3-thiazolidine-2-thione]			inhibition at 50 µM ([1]; 120 h, 5 days): 59%; inhibition at 100 µM [1, 5]: 46%
N#CN=C(N)N [DCD, dicyandiamide]			Nitrification inhibition (%) [1, 5]: 0%
Cc1cn(C(CC(=O)O)C(=O)O)nc1C (stereo not shown) [DMPSA, 2-(3,4-dimethyl-pyrazol-1-yl)-succinic acid]			inhibition at 50 µM ([1]; 72 h, 3 days): 47%; inhibition at 100 µM [1, 5]: 44%
N#Cc1nn(CN2CCSCC2)c2ccc(Cl)cc12 [drawing 171]			Growth of Aliivibrio fischeri, relative to control without compound (%) [2]: 3%
CC(C)n1ncc2cc(CNc3ccc4[nH]ncc4c3)cnc21 [drawing 170]			Growth of Aliivibrio fischeri, relative to control without compound (%) [2]: 40%
CC(C)n1ncc2cc(NC(=O)N3CCN(S(=O)(=O)N4CCCCCC4)CC3)cnc21 [Example 83]	100%	100%	
CCN(CC1CCOC1)C(=O)c1cnc2c(cnn2C(C)C)c1 (stereo not shown) [Example 29]	100%	92%	
Cc1ccccc1OCCN(C)C(=O)c1n[nH]c2ccccc12 [Example 148]	100%	100%	
Cc1nc2c(cnn2C(C)C)cc1C(=O)N1CCc2ccccc21 [Example 74]	100%	100%	
CC(CCc1ccco1)NC(=O)c1cnc2c(cnn2Cc2ccccc2)c1 (stereo not shown) [Example 51]	91%	100%	
CC(C)n1ncc2cc(NC(=O)C3CC3(Cl)Cl)cnc21 (stereo not shown) [Example 19]	100%	90%	
CS(=O)(=O)c1ccc(-c2noc(-c3cccc4[nH]ncc34)n2)cc1 [Example 135]	100%	100%	
Cc1cc(-c2nc(-c3ccc4c(c3)OCO4)no2)c2c(C)nn(C)c2n1 [Example 66]	99%	100%	
CCC1CN(C(=O)CCc2c(C)nc3c(c(C)nn3C)c2C)CCO1 (stereo not shown) [Example 58]	98%	100%	
